# Reference: article PMC5920559 (Journal of medicinal chemistry, 2017)
# Like-named read-outs stand apart in the source and are kept apart here. Peptide text beside a SMILES is read from it. * marks the point of attachment. Cbz = O=C(OCc1ccccc1)*
# How the values were obtained:
# [1] = target: endogenous SMN protein in HEK293 cells (Homo sapiens, UniProt Q16637); test: pulse-chase SMN protein half-life; format: cell-based; conditions: 10 µM
# [2] = test system: polyubiquitinated proteins in HEK293 cells; test: polyubiquitinated proteins immunoblot; format: cell-based; conditions: for effect on basal level of polyubiquitinated proteins: 1 and 10 µM
# [3] = test system: SMN2-luc reporter cell line; test: SMN2-luciferase; format: cell-based; conditions: 24 h
# SMN-luc fusion = SMN-luc fusion (UniProt P08659+Q16637); test: SMN-luc protein stability with cycloheximide; format: cell-based; conditions: with cycloheximide 10 µM, compound 10 µM
# [4] = test system: human SMN protein in 3813T fibroblasts; conditions: cited from earlier work
# SMN-luciferase mRNA [5] = conditions: cited from earlier work
# severe SMA mice (SMNΔ7) = severe SMA mice (SMNΔ7) printed for 5; cited from earlier work
# [6] = kinetic solubility at pH 7.4; format: physicochemical; conditions: aqueous medium (buffer not named)
# mouse pharmacokinetics = format: in vivo; conditions: for Cmax: plasma, plasma Cmax
# [7] = plasma protein binding, mouse plasma; format: in vitro ADME
# [8] = plasma protein binding, human plasma; format: in vitro ADME
# SH5Y5Y cells = test: cell viability; format: cell-based; conditions: up to 100× its EC50, 48 h
# acid stability in HCl = format: physicochemical; conditions: 0.1 and 1 N HCL, 37 °C, each time point 1, 2, 4, 6, 24 h, LCMS
# SV40 reporter cells = test: SV40 promoter luciferase counterscreen; format: cell-based
# recombinant luciferase = recombinant luciferase (Photinus pyralis, UniProt P08659); test: recombinant luciferase activity; format: biochemical
# 58 kinase panel = test: 58 kinase panel; format: biochemical; conditions: 10 µM
# [9] = test system: 64 target broad panel (e.g., GPCRs and ion channels); test: 64 target broad panel screen; conditions: 10 µM
# hERG = hERG (Homo sapiens, UniProt Q12809); test: hERG safety profiling; conditions: 10 µM
# SMN2 reporter cells = test: constant ratio combination experiment in SMN2 reporter cells; format: cell-based
# SMN-luciferase mRNA [10] = test: qRT-PCR of SMN-luciferase mRNA; format: cell-based; conditions: 1, 10 µM, 24 h
# [11] = test system: p53 and p21-Cip1 in HEK293 cells; test: levels of short-lived proteins p53 and p21; format: cell-based; conditions: alone or after cycloheximide
# [12] = test system: MBP-HPV-16 E6 mediated degradation of p53; test: HPV16 E6 mediated p53 in vitro degradation assay; format: biochemical; conditions: preincubation of rabbit reticulocyte lysates, 30 min
# [13] = test system: LC3-I/II and p62 in HEK293 cells; test: autophagy markers immunoblot; format: cell-based; conditions: 8 h
# [14] = test system: renilla luciferase protein; test: Renilla-luc protein stability with cycloheximide; conditions: with cycloheximide 10 µM, compound 10 µM
# Chain of endogenous SMN protein in HEK293 cells (Q16637 whole entry): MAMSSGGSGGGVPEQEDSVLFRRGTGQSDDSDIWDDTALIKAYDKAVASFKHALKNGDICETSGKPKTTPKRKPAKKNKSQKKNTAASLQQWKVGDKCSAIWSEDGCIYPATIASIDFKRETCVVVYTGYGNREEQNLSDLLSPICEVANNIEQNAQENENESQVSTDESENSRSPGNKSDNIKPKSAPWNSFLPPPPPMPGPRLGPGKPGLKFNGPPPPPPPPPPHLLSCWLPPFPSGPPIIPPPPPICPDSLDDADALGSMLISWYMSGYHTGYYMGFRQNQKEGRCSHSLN
# Chain of hERG (Q12809 whole entry): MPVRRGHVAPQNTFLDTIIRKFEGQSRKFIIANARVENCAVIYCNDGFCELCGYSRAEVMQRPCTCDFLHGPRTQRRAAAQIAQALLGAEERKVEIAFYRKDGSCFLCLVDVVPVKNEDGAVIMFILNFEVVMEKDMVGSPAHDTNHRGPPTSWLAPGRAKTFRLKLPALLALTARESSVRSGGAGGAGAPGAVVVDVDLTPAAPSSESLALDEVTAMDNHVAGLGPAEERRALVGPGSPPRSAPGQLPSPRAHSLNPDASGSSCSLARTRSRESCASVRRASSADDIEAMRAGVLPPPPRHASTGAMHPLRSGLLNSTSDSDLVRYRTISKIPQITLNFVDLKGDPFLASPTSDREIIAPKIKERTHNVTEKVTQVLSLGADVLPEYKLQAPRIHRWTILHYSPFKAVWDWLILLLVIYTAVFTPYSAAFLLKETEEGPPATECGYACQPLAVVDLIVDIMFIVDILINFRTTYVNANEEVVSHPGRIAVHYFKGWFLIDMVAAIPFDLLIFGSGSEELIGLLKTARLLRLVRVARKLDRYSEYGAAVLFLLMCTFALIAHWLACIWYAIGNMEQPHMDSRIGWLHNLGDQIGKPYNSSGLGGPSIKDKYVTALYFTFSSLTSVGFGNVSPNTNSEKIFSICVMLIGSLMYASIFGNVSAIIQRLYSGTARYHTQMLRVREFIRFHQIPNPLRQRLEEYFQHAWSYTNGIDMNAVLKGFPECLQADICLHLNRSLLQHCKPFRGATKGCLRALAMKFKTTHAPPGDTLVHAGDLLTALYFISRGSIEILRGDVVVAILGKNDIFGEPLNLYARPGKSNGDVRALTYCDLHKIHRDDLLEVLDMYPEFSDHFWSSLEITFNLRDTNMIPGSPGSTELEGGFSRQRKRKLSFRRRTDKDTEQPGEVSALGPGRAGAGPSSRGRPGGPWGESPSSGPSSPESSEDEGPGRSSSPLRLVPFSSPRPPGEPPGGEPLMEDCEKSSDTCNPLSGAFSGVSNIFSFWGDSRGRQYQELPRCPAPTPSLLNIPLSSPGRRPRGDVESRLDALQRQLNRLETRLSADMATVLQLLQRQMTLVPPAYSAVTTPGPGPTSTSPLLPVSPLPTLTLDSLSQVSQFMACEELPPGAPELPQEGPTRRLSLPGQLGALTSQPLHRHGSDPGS
# Chain of recombinant luciferase (P08659 whole entry): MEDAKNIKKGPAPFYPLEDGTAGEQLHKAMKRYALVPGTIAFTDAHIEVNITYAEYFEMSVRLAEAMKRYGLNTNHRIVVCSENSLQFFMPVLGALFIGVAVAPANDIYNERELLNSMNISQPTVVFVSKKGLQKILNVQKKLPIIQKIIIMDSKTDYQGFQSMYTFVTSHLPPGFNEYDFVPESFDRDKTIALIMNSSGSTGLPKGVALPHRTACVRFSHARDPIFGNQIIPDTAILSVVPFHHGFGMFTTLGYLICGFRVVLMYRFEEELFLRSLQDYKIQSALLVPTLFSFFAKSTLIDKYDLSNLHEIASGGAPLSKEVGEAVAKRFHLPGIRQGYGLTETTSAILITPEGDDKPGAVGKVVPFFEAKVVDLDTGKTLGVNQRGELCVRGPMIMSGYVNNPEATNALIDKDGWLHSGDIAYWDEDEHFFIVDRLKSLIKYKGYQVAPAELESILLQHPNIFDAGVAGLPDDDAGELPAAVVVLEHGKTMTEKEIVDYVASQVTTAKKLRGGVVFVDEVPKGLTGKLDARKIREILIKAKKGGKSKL
smiles,measurement,setting,value
CC(C)C[C@@H](C=O)NC(=O)[C@H](CC(C)C)NC(=O)[C@H](CC(C)C)NC(=O)OCc1ccccc1 [MG-132] (Cbz-Leu-Leu-Leu-aldehyde),effect on SMN protein half-life,[1],increased
same,effect on basal level of polyubiquitinated proteins,[2],increased
same,inhibition of cycloheximide-induced reduction of polyubiquitinated proteins,[2]; 2 h pretreatment then cycloheximide 10 µM,inhibited
"CC(C)c1cc(C(=O)Nc2ccc(F)c(Cl)c2)no1 [Compound 4, N-(3-Chloro-4-fluorophenyl)-5-isopropylisoxazole-3-carboxamide]",EC50,[3],1800 nM
same,effect on SMN protein half-life,[1],increased
same,stabilization of SMN-luc fusion,SMN-luc fusion,stabilized
same,SMN expression in SMA-derived fibroblast,[4],promoted increases
same,effect on SMN mRNA expression and exon 7 inclusion,SMN-luciferase mRNA [5],did not alter SMN mRNA expression or exon 7 inclusion
same,in vivo activity,severe SMA mice (SMNΔ7),inactive
"O=C(Nc1ncc(C2(O)CCC2)s1)c1ccc(F)c(Cl)c1 [Compound 27, 3-Chloro-4-fluoro-N-(5-(1-hydroxycyclobutyl)thiazol-2-yl)-benzamide]",solubility,[6],~10 µg/mL
same,Cmax,"mouse pharmacokinetics; ip, 20 mg/kg, ip 20 mg/kg",23 µM
same,Cmax,"mouse pharmacokinetics; po, 20 mg/kg, adult mice, orally 20 mg/kg",0.9 µM
same,free fraction in mouse plasma,[7],4.7 % free
same,free fraction in human plasma,[8],3.5 % free
same,effect on viability of SH5Y5Y cells,SH5Y5Y cells,no effect
same,degradation in acid,acid stability in HCl,less than 5%
same,effect on luc levels expressed from a minimal SV40 promoter,SV40 reporter cells,minimal effects
same,effect on recombinant luciferase protein in vitro,recombinant luciferase,minimal effects
same,inhibition in 58 kinase panel,58 kinase panel,< 50%
same,inhibition of 64 other targets,[9],< 50%
same,inhibition of hERG activity,hERG,< 50%
same,SMN2-luc level on combined exposure with 4,"SMN2 reporter cells; in combination with 4, 24 h",did not result in additive or above additive levels
same,SMN2-luc level on combined exposure with 5,"SMN2 reporter cells; in combination with transcriptional activator 5, 24 h",an activation above the theoretical additive was observed
same,effect on SMN mRNA expression and exon 7 inclusion,SMN-luciferase mRNA [10],did not alter SMN mRNA expression or exon 7 inclusion
same,stabilization of SMN-luc fusion,SMN-luc fusion,stabilized
same,effect on basal level of polyubiquitinated proteins,[2],no effect
same,effect on cellular levels of p53 and p21-Cip1,[11],did not alter
same,inhibition of MBP-HPV-16 E6 mediated degradation of p53,[12],no inhibition
same,effect on p62 and LC-3 II protein levels,[13],did not alter
"COc1cc2c(c(OC)c1OC)C(c1cc(Br)ccc1F)CC(=O)N2 (stereo not drawn) [Compound 5, reference compound]",stabilization of SMN-luc fusion,SMN-luc fusion,Neither
same,in vivo activity,severe SMA mice (SMNΔ7),increases SMN protein and the survival
same,stabilization of renilla luciferase protein,[14],Neither
"O=C(Nc1ncc(C2CCC2)s1)c1ccc(F)c(Cl)c1 [Compound 26, 3-Chloro-N-(5-cyclobutylthiazol-2-yl)-4-fluorobenzamide]",Emax,[3]; read-out: % Activation,100 ± 16%
"CCN(CC)CCCC(C)Nc1ccnc2cc(Cl)ccc12 (stereo not drawn) [Chloroquine, reference compound]",effect on p62 and LC-3 II protein levels,[13],increased
"CC(C)c1cc(C(=O)Nc2ccccn2)no1 [Compound 4m, 5-Isopropyl-N-(pyridin-2-yl)isoxazole-3-carboxamide]",brain Cmax,"mouse pharmacokinetics; 20 mpk ip, 20 mg/kg",6 ng/mL
same,plasma Cmax,"mouse pharmacokinetics; 20 mpk ip, 20 mg/kg",3 ng/mL
same,plasma and brain levels after 30 min,mouse pharmacokinetics; ip 20 mg/kg,below the levels of detection
"O=C(CCCCCCC(=O)Nc1ccccc1)NO [SAHA, suberoylanilide hydroxamic acid, reference compound]",stabilization of SMN-luc fusion,SMN-luc fusion,Neither
same,stabilization of renilla luciferase protein,[14],Neither
